In patent US4822800A (Ortho Pharmaceutical Corporation, priority 1986, dated 1989):
“Also recorded” adds a separate entry of the source. Like-named read-outs stand apart in the source and are kept apart here.

How the values were obtained:
adult mongrel dogs [1] = assay: renal vasodilating activity in anesthetized dogs; format: in vivo, dog (adult mongrel); details: for change in vivo at 0.2 mg/kg / change in vivo at 1.2 mg/kg / change in vivo at 0.34 mg/kg / change in vivo at 0.14 mg/kg: Canis lupus familiaris, renal vasodilator, relative to controls; for change in vivo at 0.2 mg/kg: dose 0.2 mg/kg intravenous; for renal vasodilating activity (in words): summary of Table 4; for change in vivo at 1.2 mg/kg: dose 1.2 mg/kg intravenous; for change in vivo at 0.34 mg/kg: dose 0.34 mg/kg intravenous; for change in vivo at 0.14 mg/kg: dose 0.14 mg/kg intravenous
Procedure: Goldberg et al, J. Pharmacol. Exp. Ther., 163, 188 (1968), performed an investigation of the structural requirements for dopamine-like renal vasodilation of phenethylamines and apomorphine. The following procedure is a variation of the assay described in that report.
Adult mongrel dogs were anesthetized and surgically prepared for electromagnetic measurement of renal artery blood flow. A carotid artery was cannulated for measuring arterial blood pressure, and drugs were administered intravenously. Heart rate was monitored with a cardiotachometer. Renal vascular resistance was calculated as the ratio of mean arterial blood pressure/renal artery blood flow. Dopamine was infused intravenously at 3 μg/kg/min for ten minutes (at an infusion rate of about 1 ml/min) to determine responsiveness of each dog to renal dopamine receptor stimulation. Cumulative dose-response data were obtained by infusing a compound of this invention at progressively increasing (usually three-fold) infusion rates, each dose being infused for five minutes. The maximum % increase from pre-drug control in renal artery blood flow (or a decrease in renal vascular resistance) was determined for each infusion dose.
RBF values are percent change in renal blood flow. RVR values are percent change in renal vascular resistance. MABP and HR are percent changes in mean arterial blood pressure and heart rate, respectively, relative to controls.

[2] = target: T1, Phosphodiesterase fraction III (Canis lupus familiaris, UniProt A0A8I3NYE0); assay: inhibition of phosphodiesterase fraction III activity; format: biochemical, canine (heart); details: for IC50: cyclic AMP 0.10-1.0 uM, pH 7.4, canine heart enzyme; for phosphodiesterase fraction III inhibition (in words): summary of Table 5
T1 construct: isolated as an isozyme from the crude canine heart homogenate; from tissue; host or cells: canine heart (crude homogenate, ion exchange chromatography, third and last PDE peak)
T1 sequence (A0A8I3NYE0 1-1135): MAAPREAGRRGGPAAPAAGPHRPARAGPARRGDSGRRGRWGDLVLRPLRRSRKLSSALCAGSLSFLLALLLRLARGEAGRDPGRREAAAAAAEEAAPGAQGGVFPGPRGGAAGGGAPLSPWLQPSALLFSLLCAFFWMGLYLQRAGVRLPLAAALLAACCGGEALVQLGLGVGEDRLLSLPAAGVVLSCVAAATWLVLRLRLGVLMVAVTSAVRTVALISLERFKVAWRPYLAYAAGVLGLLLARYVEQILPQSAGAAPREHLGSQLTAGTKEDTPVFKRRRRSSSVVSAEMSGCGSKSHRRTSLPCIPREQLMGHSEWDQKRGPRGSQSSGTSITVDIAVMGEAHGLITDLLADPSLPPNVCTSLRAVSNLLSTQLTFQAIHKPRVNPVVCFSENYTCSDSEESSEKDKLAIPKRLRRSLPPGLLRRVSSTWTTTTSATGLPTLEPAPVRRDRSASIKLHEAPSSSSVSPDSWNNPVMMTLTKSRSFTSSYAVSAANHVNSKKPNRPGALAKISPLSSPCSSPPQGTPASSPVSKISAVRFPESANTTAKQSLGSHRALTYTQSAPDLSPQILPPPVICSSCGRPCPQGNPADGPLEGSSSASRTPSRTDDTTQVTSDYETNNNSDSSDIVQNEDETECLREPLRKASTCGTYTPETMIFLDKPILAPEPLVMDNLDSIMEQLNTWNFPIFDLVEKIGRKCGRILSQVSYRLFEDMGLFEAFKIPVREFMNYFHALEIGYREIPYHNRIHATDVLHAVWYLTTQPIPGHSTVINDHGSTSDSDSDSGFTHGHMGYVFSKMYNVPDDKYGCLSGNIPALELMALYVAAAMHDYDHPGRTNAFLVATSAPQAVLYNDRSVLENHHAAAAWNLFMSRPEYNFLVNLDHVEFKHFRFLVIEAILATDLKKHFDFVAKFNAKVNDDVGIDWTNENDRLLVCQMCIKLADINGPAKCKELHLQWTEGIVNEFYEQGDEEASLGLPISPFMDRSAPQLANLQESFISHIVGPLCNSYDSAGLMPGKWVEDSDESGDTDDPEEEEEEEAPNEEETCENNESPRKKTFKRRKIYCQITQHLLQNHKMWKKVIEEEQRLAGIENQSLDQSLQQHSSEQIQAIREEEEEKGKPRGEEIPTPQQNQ

adult mongrel dogs [3] = assay: acute in vivo cardiotonic activity in anesthetized dogs; set-up: species or system dog (adult mongrel); details: for change in vivo at 0.15 mg/kg / change in vivo at 0.375 mg/kg / change in vivo at 0.925 mg/kg / change in vivo at 1.875 mg/kg / change in vivo at 0.875 mg/kg: Canis lupus familiaris, cardiotonic, relative to controls; for change in vivo at 0.15 mg/kg: dose 0.150 mg/kg intravenous; for cardiotonic activity (in words): summary of Table 4; for change in vivo at 0.375 mg/kg: dose 0.375 mg/kg intravenous; for change in vivo at 0.925 mg/kg: dose 0.925 mg/kg intravenous; for change in vivo at 1.875 mg/kg: dose 1.875 mg/kg intravenous; for change in vivo at 0.875 mg/kg: dose 0.875 mg/kg intravenous
Procedure: The acute in vivo cardiotonic activity of compounds prepared according to the present invention was determined according to a modification of the procedure described by Alousi et al., Circ. Res., 45, 666 (1979).
In particular, adult mongrel dogs were anesthetized with sodium pentobarbital and were artificially respired. Arterial pressure was monitored via a femoral artery, and the pulse pressure was used to trigger a cardiotachometer for heart rate. Left ventricular pressure was determined with a Millar catheter, and dP/dt (the change in ventricular pressure with time) was derived. Cardiac output was determined by measuring ascending aortic blood flow with an electromagnetic flow probe, and myocardial contractile force was measured with a Walton Brodie strain gauge sutured to the right ventricle. Lead II EKG was also recorded.
A standard dose (10 μg/kg/min) of dopamine was administered to assess myocardial responsiveness.
Compounds of the invention were administered by intravenous infusion or bolus […] administration, and the effects on cardiovascular parameters were determined.
Dose related effects of the test compound on blood pressure (BP), heart rate (HR), maximum change in left ventricular pressure with time (dP/dt max),% change in cardiac force (CF) and the increase in mean arterial blood pressure relative to controls (MABP) were compared to pretreatment control values, expressed as a% change and rated for activity.

[4] = read-out: MABP (mean arterial blood pressure)
[5] = read-out: RBF (renal blood flow)
[6] = read-out: RVR (renal vascular resistance)
[7] = read-out: dP/dt (maximum change left ventricular pressure with time)

## COc1cc2c(C)nc(O)c(C(C)C)c2cc1OC [AF]
Adult mongrel dogs [1]; read-out: HR (heart rate)
  change in vivo at 0.2 mg/kg: 28%
Adult mongrel dogs [1]; [4]
  change in vivo at 0.2 mg/kg: -16%
Adult mongrel dogs [1]; [5]
  change in vivo at 0.2 mg/kg: 11%
Adult mongrel dogs [1]; [6]
  change in vivo at 0.2 mg/kg: -24%
Adult mongrel dogs [1]
  renal vasodilating activity (in words): renal vasodilating properties
[2]
  IC50: 12.3 µM
  phosphodiesterase fraction III inhibition (in words): inhibit phosphodiesterase fraction III activity; also recorded: phosphodiesterase fraction III inhibiting properties
Adult mongrel dogs [3]; read-out: CF (cardiac force)
  change in vivo at 0.15 mg/kg: 92%
Adult mongrel dogs [3]; read-out: HR (heart rate)
  change in vivo at 0.15 mg/kg: 8%
Adult mongrel dogs [3]; [4]
  change in vivo at 0.15 mg/kg: -15%
Adult mongrel dogs [3]; [7]
  change in vivo at 0.15 mg/kg: 60%
Adult mongrel dogs [3]
  cardiotonic activity (in words): cardiotonic properties

## COc1cc(OC)c2c(C)nc(O)cc2c1 [AH]
Adult mongrel dogs [1]; read-out: HR (heart rate)
  change in vivo at 1.2 mg/kg: 25%
Adult mongrel dogs [1]; [4]
  change in vivo at 1.2 mg/kg: -6%
Adult mongrel dogs [1]; [5]
  change in vivo at 1.2 mg/kg: 13%
Adult mongrel dogs [1]; [6]
  change in vivo at 1.2 mg/kg: -17%
[2]
  IC50: 80 µM
Adult mongrel dogs [3]; read-out: CF (cardiac force)
  change in vivo at 0.375 mg/kg: 50%
Adult mongrel dogs [3]; read-out: HR (heart rate)
  change in vivo at 0.375 mg/kg: 6%
Adult mongrel dogs [3]; [4]
  change in vivo at 0.375 mg/kg: -3%
Adult mongrel dogs [3]; [7]
  change in vivo at 0.375 mg/kg: 46%

## COc1ccc2c(C)nc(O)cc2c1 [AI]
Adult mongrel dogs [1]; read-out: HR (heart rate)
  change in vivo at 1.2 mg/kg: 4%
Adult mongrel dogs [1]; [4]
  change in vivo at 1.2 mg/kg: -1%
Adult mongrel dogs [1]; [5]
  change in vivo at 1.2 mg/kg: 7%
Adult mongrel dogs [1]; [6]
  change in vivo at 1.2 mg/kg: -7%
[2]
  IC50: 160 µM
Adult mongrel dogs [3]; read-out: CF (cardiac force)
  change in vivo at 0.925 mg/kg: 65%
Adult mongrel dogs [3]; read-out: HR (heart rate)
  change in vivo at 0.925 mg/kg: 8%
Adult mongrel dogs [3]; [4]
  change in vivo at 0.925 mg/kg: 0%
Adult mongrel dogs [3]; [7]
  change in vivo at 0.925 mg/kg: 56%

## CCCCOc1cc2c(C)nc(O)cc2cc1OC [AL]
Adult mongrel dogs [1]; read-out: HR (heart rate)
  change in vivo at 1.2 mg/kg: 9%
Adult mongrel dogs [1]; [4]
  change in vivo at 1.2 mg/kg: -6%
Adult mongrel dogs [1]; [5]
  change in vivo at 1.2 mg/kg: 13%
Adult mongrel dogs [1]; [6]
  change in vivo at 1.2 mg/kg: -17%
Adult mongrel dogs [1]
  renal vasodilating activity (in words): renal vasodilating properties
[2]
  IC50: 37 µM
  phosphodiesterase fraction III inhibition (in words): inhibit phosphodiesterase fraction III activity; also recorded: phosphodiesterase fraction III inhibiting properties
Adult mongrel dogs [3]; read-out: CF (cardiac force)
  change in vivo at 0.375 mg/kg: 138%
Adult mongrel dogs [3]; read-out: HR (heart rate)
  change in vivo at 0.375 mg/kg: 22%
Adult mongrel dogs [3]; [4]
  change in vivo at 0.375 mg/kg: -10%
Adult mongrel dogs [3]; [7]
  change in vivo at 0.375 mg/kg: 46%
Adult mongrel dogs [3]
  cardiotonic activity (in words): cardiotonic properties

## COc1cc2c(C)nc(O)c(C3CCCC3)c2cc1OC [AN]
Adult mongrel dogs [1]; read-out: HR (heart rate)
  change in vivo at 0.34 mg/kg: 1%
Adult mongrel dogs [1]; [4]
  change in vivo at 0.34 mg/kg: -1%
Adult mongrel dogs [1]; [5]
  change in vivo at 0.34 mg/kg: 10%
Adult mongrel dogs [1]; [6]
  change in vivo at 0.34 mg/kg: -10%
[2]
  IC50: 128 µM
Adult mongrel dogs [3]; read-out: CF (cardiac force)
  change in vivo at 1.875 mg/kg: 46%
Adult mongrel dogs [3]; read-out: HR (heart rate)
  change in vivo at 1.875 mg/kg: 5%
Adult mongrel dogs [3]; [4]
  change in vivo at 1.875 mg/kg: 3%
Adult mongrel dogs [3]; [7]
  change in vivo at 1.875 mg/kg: 22%

## Br.COc1cc2c(C)nc(O)c(Br)c2cc1OC.O [Compound AC, 4-Bromo-3-hydroxy-6,7-dimethoxy-1-methylisoquinoline Hydrobromide Monohydrate]
Adult mongrel dogs [1]; [5]
  change in vivo at 0.2 mg/kg: 8%
Adult mongrel dogs [1]; [6]
  change in vivo at 0.2 mg/kg: -27%
[2]
  IC50: 10 µM
  phosphodiesterase fraction III inhibition (in words): inhibit phosphodiesterase fraction III activity
Adult mongrel dogs [3]; read-out: CF (cardiac force)
  change in vivo at 0.875 mg/kg: 128%
Adult mongrel dogs [3]; read-out: HR (heart rate)
  change in vivo at 0.875 mg/kg: 26%
Adult mongrel dogs [3]; [4]
  change in vivo at 0.875 mg/kg: -40%
Adult mongrel dogs [3]; [7]
  change in vivo at 0.875 mg/kg: 25%

## COc1cc2c(C)nc(O)c(Cl)c2cc1OC [Compound AE, 4-Chloro-3-hydroxy-6,7-dimethoxy-1-methylisoquinoline]
Adult mongrel dogs [1]; [5]
  change in vivo at 0.14 mg/kg: 12%
Adult mongrel dogs [1]; [6]
  change in vivo at 0.14 mg/kg: -25%
[2]
  IC50: 62 µM
Adult mongrel dogs [3]; read-out: CF (cardiac force)
  change in vivo at 0.875 mg/kg: 89%
Adult mongrel dogs [3]; read-out: HR (heart rate)
  change in vivo at 0.875 mg/kg: 29%
Adult mongrel dogs [3]; [4]
  change in vivo at 0.875 mg/kg: 1%
Adult mongrel dogs [3]; [7]
  change in vivo at 0.875 mg/kg: 88%
